{
  "source": "paper PMC12021657",
  "about": "“Rapid traversal of vast chemical space using machine learning-guided docking screens” (Nature Computational Science, 2025)",
  "key": {"[1]": {"biological_target": "T1, Human D2R (Homo sapiens, UniProt P14416)", "T1 construct": "expressed in transfected cells", "T1 sequence (P14416 whole entry)": "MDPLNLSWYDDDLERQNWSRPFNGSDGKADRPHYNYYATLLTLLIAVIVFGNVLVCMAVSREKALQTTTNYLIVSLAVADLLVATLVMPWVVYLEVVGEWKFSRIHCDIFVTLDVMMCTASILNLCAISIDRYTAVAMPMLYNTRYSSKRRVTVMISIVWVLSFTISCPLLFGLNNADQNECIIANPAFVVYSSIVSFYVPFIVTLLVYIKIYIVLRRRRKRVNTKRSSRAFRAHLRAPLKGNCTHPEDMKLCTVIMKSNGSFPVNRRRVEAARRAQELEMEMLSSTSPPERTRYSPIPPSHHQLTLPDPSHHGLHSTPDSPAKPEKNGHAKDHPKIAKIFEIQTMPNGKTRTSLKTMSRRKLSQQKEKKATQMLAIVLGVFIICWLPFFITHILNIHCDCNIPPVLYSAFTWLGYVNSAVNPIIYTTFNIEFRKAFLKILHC", "experiment": "Human D2R competition radioligand binding ([3H]-spiperone, CHO-D2R #S20 membranes)", "method": "Screening compounds (Supplementary Tables 10 and 12) were purchased from Enamine (compound purity >90%, which was confirmed by liquid chromatography−mass spectrometry and ^1H NMR spectroscopy for identified ligands; Supplementary Figs. 19–30). Human D2R competition binding experiments were carried out in polypropylene 96-well plates. Each well contained 20 µg of membranes from a CHO-D2R #S20 cell line (protein concentration of 4,322 µg ml^−1), 1.5 nM [^3H]-spiperone (54.3 Ci mmol^−1, 1 mCi ml^−1, PerkinElmer NET1187250UC) and the compound studied. Non-specific binding was determined in the presence of 10 µM sulpiride (Sigma Aldrich S8010). The reaction mixture (250 µl per well) was incubated at 25 °C for 120 min, after which 200 µl was transferred to a GF/C 96-well plate (Millipore) pretreated with 0.5% PEI and treated with binding buffer (50 mM Tris-HCl, 1 mM EDTA, 5 mM MgCl2, 5 mM KCl, 120 mM NaCl, pH 7.4). The reaction mixture was filtered and washed 4 times with 250 µl wash buffer (50 mM Tris-HCl, 0.9% NaCl, pH 7.4) before the addition of 30 μl Universol. The final measurement was performed in a microplate beta scintillation counter (Microbeta Trilux, PerkinElmer). Human A2AR competition binding experiments were carried out in a multiscreen GF/C 96-well plate (Millipore) pretreated with binding buffer (Tris-HCl 50 mM, EDTA 1 mM, MgCl2 10 mM, 2 U ml^−1 adenosine deaminase, pH 7.4). Each well was incubated with 5 μg of membranes from the HeLa-A2A cell line and prepared in our laboratory (lot A003/14-04-2019, protein concentration 2,058 μg ml^−1), 1 nM [^3H]-ZM241385 (50 Ci mmol^−1, 1 mCi ml^−1, ARC-ITISA 0884), and the compounds studied and standards. Non-specific binding was determined in the presence of NECA 50 μM (Sigma E2387). The reaction mixture (total volume of 200 μl per well) was incubated at 25 °C for 30 min, then filtered and washed 4 times with 250 μl wash buffer (Tris-HCl 50 mM, EDTA 1 mM, MgCl2 10 mM, pH 7.4), and measured in a microplate beta scintillation counter (Microbeta Trilux, PerkinElmer). Unless stated otherwise, three independent experiments were carried out to calculate Ki values."}, "[2]": {"biological_target": "T1, Human D2R", "experiment": "Human D2R functional cAMP assay (HTRF, CHO-D2 #S20 cells, forskolin)", "type": "cell-based", "method": "Human D2R activity was measured by determining the amount of cAMP produced. Human D2R functional experiments were carried out in a CHO-D2 #S20 cell line. Five-thousand cells were seeded in 30 μl of Optimem (Invitrogen 11058) + 500 μM IBMX (Sigma 17018) on a 96-well black-and-white isoplate (PerkinElmer 6005030). Test compounds and dopamine were added in their corresponding wells and incubated for 10 min at 37 °C with gentle stirring (150 r.p.m.). Then, 10 µM forskolin (Sigma 17018) was added and incubated for 5 min at 37 °C with gentle stirring (150 r.p.m.). Reagents from the kit (#CISBIO 62AM4PEC) were added and incubated for 1 h at room temperature with gentle stirring (90 r.p.m.) and protected from light. HTRF (excitation wavelength: 320 nm; emission wavelengths: 620–665 nm) from each well was measured using a Tecan Infinite M1000 Pro. Two independent experiments were carried out to calculate EC50 and Emax values."}},
  "data": [
    {"smiles": "Fc1ccc(-n2ccc(CCNC3Cc4ccccc4C3)n2)cc1", "note": "[Compound 1, c1ccc2c(c1)CC(C2)NCCc3ccn(n3)c4ccc(cc4)F]", "values": [
      {"measurement": "D2R radioligand displacement at 10 µM (%)", "setting": "[1]; 10 µM compound, mean ± SEM of two technical replicates, listed as Z1441695252", "result": "59 ± 1", "unit": "%"},
      {"measurement": "inhibition at 10 µM", "setting": "[1]; 2 h, 10 µM compound, mean ± SEM of two technical replicates, read-out: D2R radioligand displacement at 10 µM (%)", "result": "59 ± 1", "unit": "%"},
      {"measurement": "Ki", "setting": "[1]; mean ± SEM from three independent experiments", "result": 3, "unit": "µM"},
      {"measurement": "EC50", "setting": "[2]; CHO-D2 #S20 cells, two independent experiments, read-out: EC50 (D2R-mediated changes in intracellular cAMP)", "result": 10, "unit": "µM"},
      {"measurement": "functional character at D2R", "setting": "[2]; cAMP assay", "result": "full agonists"},
      {"measurement": "Emax", "setting": "[2]; read-out: Emax (maximal effect)", "result": 99, "unit": "%"}
    ]}
  ]
}
